One data set deals with T1, human GLP-1 receptor (Homo sapiens, UniProt P43220).
T1 construct: expressed in transfected cells; host or cells: membranes of BHK cells, parent line BHKTS13, clone FCW467-12A
Description: Assay (II)(a): GLP-1 receptor binding, [125I]GLP-1 displacement, SPA on BHK membranes. The conditions noted are these: displacement of [125I]GLP-1, membranes with human GLP-1 receptor; read-out: IC50 GLP-1R. In short, it runs like this:
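Membranes from BHK cells expressing human GLP-1 receptor with WGA SPA beads, [125I]GLP-1(7-36)NH2 (480 pM added solution) and compound in HEPES pH 7.4 buffer with EGTA, MgCl2, Tween 20. Incubated 2 h at 30° C; SPA counts fitted by non-linear regression to IC50 in nM.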

Data set [1] can be described thus: Assay (III): ThT fibrillation assay for physical stability. In kind it is physicochemical. The conditions noted are these: pH 7.5, 10 mM HEPES buffer, 37° C., shaking 960 rpm. From the text: Assay (III): ThT Fibrillation Assay for the Assessment of Physical Stability of Peptide Compositions
The purpose of this assay is to assess the physical stability of the GLP-1 derivatives of the invention in aqueous solutions.
Low physical stability of a peptide may lead to amyloid fibril formation, which is observed as well-ordered, thread-like macromolecular structures in the sample, which eventually may lead to gel formation. This has traditionally been measured by visual inspection of the sample. However, that kind of measurement is very subjective and depending on the observer. Therefore, the application of a small molecule indicator probe is much more advantageous. Thioflavin T (ThT) is such a probe and has a distinct fluorescence signature when binding to fibrils [Naiki et al. (1989) Anal. Biochem. 177, 244-249; LeVine (1999) Methods. Enzymol. 309, 274-284]. […]
Here, as depicted in FIG. 1, F is the ThT fluorescence at the time t. The constant t0 is the time needed to reach 50% of maximum fluorescence. The two important parameters describing fibril formation are the lag-time calculated by t0−2τ and the apparent rate constant kapp 1/τ. […]
Incubation at given temperature, shaking and measurement of the ThT fluorescence emission were done in a Fluoroskan Ascent FL fluorescence platereader (Thermo Labsystems). […]

*1 amine or outer side, *2 acyl side, *3 side chain or, on linkers, in order; H or OH if unused. Where a SMILES comes first, the peptide text is derived from it. Side-chain parts run from the residue outwards. [ ]: non-standard residue; d: D form. The star is where a group is joined. C18 diacid = O=C(O)CCCCCCCCCCCCCCCCC(=O)*; γGlu = O=C(O)[C@H](CCC(=O)[*:2])N[*:1]; Desaminohistidyl = O=C(CCc1c[nH]cn1)*; AEEA = NCCOCCOCC(=O)O; Aib = CC(C)(N)C(=O)O

T1 sequence (P43220 24-463): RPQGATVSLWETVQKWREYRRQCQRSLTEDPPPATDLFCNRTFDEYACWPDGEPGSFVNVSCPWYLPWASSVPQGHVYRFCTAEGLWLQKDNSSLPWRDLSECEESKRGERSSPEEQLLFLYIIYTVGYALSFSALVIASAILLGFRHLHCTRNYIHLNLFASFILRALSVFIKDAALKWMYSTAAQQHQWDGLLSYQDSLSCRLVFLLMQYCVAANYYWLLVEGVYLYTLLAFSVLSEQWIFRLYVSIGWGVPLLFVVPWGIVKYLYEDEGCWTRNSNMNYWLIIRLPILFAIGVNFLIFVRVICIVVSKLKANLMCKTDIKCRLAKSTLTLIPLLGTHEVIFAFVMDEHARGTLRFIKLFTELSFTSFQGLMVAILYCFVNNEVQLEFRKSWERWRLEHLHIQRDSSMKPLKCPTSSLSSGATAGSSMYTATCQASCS

As for `CC[C@H](C)[C@H](NC(=O)[C@H](Cc1ccccc1)NC(=O)[C@H](CCC(=O)O)NC(=O)[C@H](CCCNC(=N)N)NC(=O)[C@H](C)NC(=O)[C@H](C)NC(=O)[C@H](CCC(N)=O)NC(=O)[C@H](CCCCNC(=O)CC[C@H](NC(=O)CC[C@H](NC(=O)COCCOCCNC(=O)COCCOCCNC(=O)CC[C@H](NC(=O)CCCCCCCCCCCCCCCCC(=O)O)C(=O)O)C(=O)O)C(=O)O)NC(=O)[C@H](CCC(=O)O)NC(=O)[C@H](CC(C)C)NC(=O)[C@H](Cc1ccc(O)cc1)NC(=O)[C@H](CCCCN)NC(=O)[C@H](CO)NC(=O)[C@@H](NC(=O)[C@H](CC(=O)O)NC(=O)[C@H](CO)NC(=O)[C@@H](NC(=O)[C@H](Cc1ccccc1)NC(=O)[C@@H](NC(=O)CNC(=O)[C@H](Cc1c[nH]cn1)NC(=O)C(C)(C)NC(=O)CCc1c[nH]cn1)[C@@H](C)O)[C@@H](C)O)C(C)C)C(=O)N[C@@H](C)C(=O)N[C@@H](Cc1c[nH]c2ccccc12)C(=O)N[C@@H](CC(C)C)C(=O)N[C@@H](CC(C)C)C(=O)N[C@@H](CCCCN)C(=O)NCC(=O)NCC(=O)NCC(=O)O` [Example 13, N^ε22-[(4S)-4-carboxy-4-[[(4S)-4-carboxy-4-[[2-[2-[2-[[2-[2-[2-[[(4S)-4-carboxy-4-(17-carboxyheptadecanoylamino)butanoyl]amino]ethoxy]ethoxy]acetyl]amino]ethoxy]ethoxy]acetyl]amino]butanoyl]amino]butanoyl]-[Imp7,Aib8,His9,Lys18,Lys22,Arg26,Leu33,Gly36]-GLP-1-(7-37)-peptide] (Desaminohistidyl-[Aib]HGTFTSDVSKYLEK([γGlu-γGlu-AEEA-AEEA-γGlu-C18 diacid])QAAREFIAWLLKGGG-OH), on human GLP-1 receptor, the IC50 was found to be 0.5 nM. Also, the “ThT assay pH 7.5: Lag time” value in data set [1] was found to be 45.0 h.

Source of the values: patent US9988430B2, “Stable GLP-1 based GLP-1/glucagon receptor co-agonists” (Novo Nordisk A/S, priority 2014, dated 2018).
